# Reference: PubChem BioAssay (NCI)
#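 Protocol summary: plate cells (96-well), add compound at 5 concentrations, incubate 48 h, interpolate endpoints linearly. Definition used: TGI = concentration required for complete inhibition of growth.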
# How the values were obtained:
# Assay in all cases: NCI anticancer screen, dose series, 48 h
# [1] = tested on: TK-10 renal
# [2] = tested on: SK-OV-3 ovarian
# [3] = tested on: OVCAR-4 ovarian
# [4] = tested on: SR leukemia
# [5] = tested on: MCF7 breast
# [6] = tested on: EKVX NSCLC
# [7] = tested on: BT-549 breast
# [8] = tested on: RXF 393 renal
# [9] = tested on: A498 renal
# [10] = tested on: UO-31 renal
# [11] = tested on: ACHN renal
# [12] = tested on: NCI-H23 lung
# [13] = tested on: HS 578T breast
# [14] = tested on: SF-268 CNS
# [15] = tested on: NCI/ADR-RES ovarian
# [16] = tested on: MOLT-4 leukemia
# [17] = tested on: HCC-2998 colon
# [18] = tested on: CCRF-CEM leukemia
# [19] = tested on: U251 CNS
# [20] = tested on: RPMI-8226 leukemia
# [21] = tested on: COLO 205 colon
# [22] = tested on: SK-MEL-2 melanoma
# [23] = tested on: SW-620 colon
# [24] = tested on: HCT-116 colon
# [25] = tested on: KM12 colon
# [26] = tested on: NCI-H226 lung
# [27] = tested on: HT29 colon
# [28] = tested on: A549 NSCLC
# [29] = tested on: 786-0 renal
# [30] = tested on: HCT-15 colon
# [31] = tested on: HOP-92 NSCLC
# [32] = tested on: UACC-62 melanoma
# [33] = tested on: MDA-MB-231 breast
# [34] = tested on: HOP-62 NSCLC
# [35] = tested on: T-47D breast
# [36] = tested on: K-562 leukemia
# [37] = tested on: OVCAR-3 ovarian
# [38] = tested on: SK-MEL-28 melanoma
# [39] = tested on: NCI-H460 lung
# [40] = tested on: SNB-19 CNS
# [41] = tested on: SK-MEL-5 melanoma
# [42] = tested on: SNB-75 CNS
# [43] = tested on: MDA-MB-435
# [44] = tested on: SN12C renal
# [45] = tested on: HL-60(TB) leukemia
# [46] = tested on: PC-3 prostate
# [47] = tested on: IGROV1 ovarian
# [48] = tested on: SF-539 CNS
# [49] = tested on: CAKI-1 renal
# [50] = tested on: SF-295 CNS
# [51] = tested on: OVCAR-5 ovarian
# [52] = tested on: DU-145 prostate
# [53] = tested on: OVCAR-8 ovarian
# [54] = tested on: NCI-H522 lung
# [55] = tested on: M14 melanoma
# [56] = tested on: UACC-257 melanoma
# [57] = tested on: LOX IMVI melanoma
smiles,measurement,setting,value
CCCCCCCCCCCCc1ccsc1-c1ccc(-c2ccc(-c3sc(-c4cc(CCCCCCCCCCCC)c(-c5ccc(-c6ccc(-c7sccc7CCCCCCCCCCCC)s6)s5)s4)cc3CCCCCCCCCCCC)s2)s1,TGI,[1],> 100 µM
same,TGI,[2],> 100 µM
same,TGI,[3],> 100 µM
same,TGI,[4],75.2 µM
same,TGI,[5],> 100 µM
same,TGI,[6],> 100 µM
same,TGI,[7],> 100 µM
same,TGI,[8],> 100 µM
same,TGI,[9],> 100 µM
same,TGI,[10],> 100 µM
same,TGI,[11],> 100 µM
same,TGI,[12],> 100 µM
same,TGI,[13],> 100 µM
same,TGI,[14],> 100 µM
same,TGI,[15],> 100 µM
same,TGI,[16],> 100 µM
same,TGI,[17],> 100 µM
same,TGI,[18],> 100 µM
same,TGI,[19],> 100 µM
same,TGI,[20],> 100 µM
same,TGI,[21],> 100 µM
same,TGI,[22],> 100 µM
same,TGI,[23],> 100 µM
same,TGI,[24],> 100 µM
same,TGI,[25],> 100 µM
same,TGI,[26],> 100 µM
same,TGI,[27],> 100 µM
same,TGI,[28],> 100 µM
same,TGI,[29],> 100 µM
same,TGI,[30],> 100 µM
same,TGI,[31],> 100 µM
same,TGI,[32],> 100 µM
same,TGI,[33],> 100 µM
same,TGI,[34],> 100 µM
same,TGI,[35],> 100 µM
same,TGI,[36],> 100 µM
same,TGI,[37],> 100 µM
same,TGI,[38],> 100 µM
same,TGI,[39],> 100 µM
same,TGI,[40],> 100 µM
same,TGI,[41],> 100 µM
same,TGI,[42],> 100 µM
same,TGI,[43],> 100 µM
same,TGI,[44],> 100 µM
same,TGI,[45],> 100 µM
same,TGI,[46],> 100 µM
same,TGI,[47],> 100 µM
same,TGI,[48],> 100 µM
same,TGI,[49],> 100 µM
same,TGI,[50],> 100 µM
same,TGI,[51],> 100 µM
same,TGI,[52],> 100 µM
same,TGI,[53],> 100 µM
same,TGI,[54],> 100 µM
same,TGI,[55],> 100 µM
same,TGI,[56],> 100 µM
COc1ccc(C(C)c2cc3c(cc2O)OCO3)cc1 (centres undefined),TGI,[1],35.9 µM
same,TGI,[2],53.2 µM
same,TGI,[3],> 100 µM
same,TGI,[4],13.6 µM
same,TGI,[5],30.8 µM
same,TGI,[57],26.5 µM
same,TGI,[6],49.6 µM
same,TGI,[7],32.5 µM
same,TGI,[8],30.1 µM
same,TGI,[9],28.5 µM
same,TGI,[10],29.8 µM
same,TGI,[11],47.6 µM
same,TGI,[12],31.1 µM
same,TGI,[13],42.6 µM
same,TGI,[14],32.5 µM
same,TGI,[15],32.7 µM
same,TGI,[16],29.4 µM
same,TGI,[17],19.3 µM
same,TGI,[19],28.6 µM
same,TGI,[20],38.8 µM
same,TGI,[21],27.4 µM
same,TGI,[22],28.9 µM
same,TGI,[23],28 µM
same,TGI,[24],29.6 µM
same,TGI,[25],83.3 µM
same,TGI,[26],36.1 µM
same,TGI,[27],28.9 µM
same,TGI,[28],32.2 µM
same,TGI,[29],34.5 µM
same,TGI,[30],23.2 µM
same,TGI,[31],31 µM
same,TGI,[32],24.4 µM
same,TGI,[33],28.6 µM
same,TGI,[34],33.7 µM
same,TGI,[35],79.1 µM
same,TGI,[36],28.7 µM
same,TGI,[37],28.3 µM
same,TGI,[38],33 µM
same,TGI,[39],28.8 µM
same,TGI,[40],66.6 µM
same,TGI,[41],28.1 µM
same,TGI,[42],60.2 µM
same,TGI,[43],18 µM
same,TGI,[44],33.3 µM
same,TGI,[45],32.3 µM
same,TGI,[46],31.9 µM
same,TGI,[47],36.5 µM
same,TGI,[48],37 µM
same,TGI,[49],74.4 µM
same,TGI,[50],35.3 µM
same,TGI,[51],45.2 µM
same,TGI,[52],36.5 µM
same,TGI,[53],31.7 µM
same,TGI,[54],26 µM
same,TGI,[55],27.2 µM
same,TGI,[56],32.2 µM
O=C(Nc1ccc(Cl)cc1)c1cc2c(cc1Cl)SC(NNCCO)=NS2(=O)=O,TGI,[1],> 100 µM
same,TGI,[2],> 100 µM
same,TGI,[3],> 100 µM
same,TGI,[4],> 100 µM
same,TGI,[5],> 100 µM
same,TGI,[57],> 100 µM
same,TGI,[6],> 100 µM
same,TGI,[7],> 100 µM
same,TGI,[8],> 100 µM
same,TGI,[9],> 100 µM
same,TGI,[10],> 100 µM
same,TGI,[11],> 100 µM
same,TGI,[12],> 100 µM
same,TGI,[13],> 100 µM
same,TGI,[14],> 100 µM
same,TGI,[15],> 100 µM
same,TGI,[16],> 100 µM
same,TGI,[17],> 100 µM
same,TGI,[18],> 100 µM
same,TGI,[19],> 100 µM
same,TGI,[20],> 100 µM
same,TGI,[21],> 100 µM
same,TGI,[22],> 100 µM
same,TGI,[23],> 100 µM
same,TGI,[24],> 100 µM
same,TGI,[25],> 100 µM
same,TGI,[26],> 100 µM
same,TGI,[27],> 100 µM
same,TGI,[29],> 100 µM
same,TGI,[30],> 100 µM
same,TGI,[31],> 100 µM
same,TGI,[32],> 100 µM
same,TGI,[33],> 100 µM
same,TGI,[34],> 100 µM
same,TGI,[35],> 100 µM
same,TGI,[36],> 100 µM
same,TGI,[38],> 100 µM
same,TGI,[39],> 100 µM
same,TGI,[40],> 100 µM
same,TGI,[41],> 100 µM
same,TGI,[42],> 100 µM
same,TGI,[43],> 100 µM
same,TGI,[45],> 100 µM
same,TGI,[46],> 100 µM
same,TGI,[47],> 100 µM
same,TGI,[48],> 100 µM
same,TGI,[49],> 100 µM
same,TGI,[50],> 100 µM
same,TGI,[52],> 100 µM
same,TGI,[53],> 100 µM
same,TGI,[55],> 100 µM
same,TGI,[56],> 100 µM
